Some results are limits rather than exact numbers.

Data set [1] relates to SMN2 minigene mRNA (SMN2-A minigene) in HEK293H cells. In words: SMN2 minigene mRNA splicing RT-qPCR assay in cultured cells. Format: cell-based, human. The conditions noted are these: Homo sapiens, HEK293-H; concentration increasing full length SMN2 mRNA 1.5-fold relative to vehicle-treated cells; HEK293H cells with SMN2-A minigene, 24 hours, 7-point concentration data; read-out: EC1.5x for production of full length SMN2 mRNA. The essentials:
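HEK293H cells stably carrying SMN2-A minigene treated with compounds (7-point, 3.16-fold dilutions, duplicates) for 24 h at 37 °C. Full-length exon 7-containing minigene mRNA measured by multiplex RT-qPCR with GAPDH, normalized and expressed relative to vehicle (modified ΔΔCt); EC1.5× is concentration giving 1.5-fold increase.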

Data set [2] relates to Smn protein in SMA patient fibroblast cells (GM03813). The data set is described as follows: Smn protein assay in cultured cells (SMN HTRF). It counts as cell-based, human. To be noted: SMA patient fibroblast cells, 48 hours; for maximum fold (Fold) increase of Smn protein: 7-point concentration data, fold relative to vehicle control; for EC1.5x for Smn protein expression: 7-point concentration curve, SMN HTRF, concentration producing 1.5 times Smn protein vs DMSO vehicle control. The essentials:
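SMA patient fibroblasts (5,000/well, DMEM-10% FBS) treated 48 h at 37° C with 7-point, 3.16-fold compound series in triplicate; lysates read by SMN HTRF (665/620 nm ratio). Fold Smn increase over DMSO vehicle derived; EC1.5× is concentration giving 1.5-fold Smn, with maximum fold also reported.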
(In general: In TR-FRET formats the signal depends on donor and acceptor labels being close together.)

A word on the melting point: it is the temperature, or range, at which the solid turns liquid. As for `COc1cc(-c2cc(=O)n3cc(N4CCN[C@@H](C)C4)ccc3n2)cc(F)c1F` [Compound 217, 2-(3,4-difluoro-5-methoxyphenyl)-7-[(3S)-3-methylpiperazin-1-yl]-4H-pyrido[1,2-a]pyrimidin-4-one], the melting point is 160 to 164 °C. For the same molecule, the EC (1.5-fold increase) in data set [1] was 0.3 to 1 µM. Moreover, the “maximum fold (Fold) increase of Smn protein” value (from here on “maximum fold (Fold) increase”) in data set [2] is “*** (a fold increase between >1.35 and ≤1.5 is indicated by three stars (***))”.
For `COc1cc(-c2cc(=O)n3cc(N4CCNCC4)ccc3n2)ccc1F` [Compound 216, 2-(4-fluoro-3-methoxyphenyl)-7-(piperazin-1-yl)-4H-pyrido[1,2-a]pyrimidin-4-one], the melting point lay in the range of 170 to 172 °C. Moreover, in data set [1], the EC (1.5-fold increase) was 0.3 to 1 µM. In addition, the “maximum fold (Fold) increase” value in data set [2] was “*** (a fold increase between >1.35 and ≤1.5 is indicated by three stars (***))”.
Regarding `Cc1nc(C2=CCNCC2)cn2c(=O)cc(-c3ccc4nn(C)cc4c3)nc12` [Compound 791, 9-methyl-2-(2-methyl-2H-indazol-5-yl)-7-(1,2,3,6-tetrahydropyridin-4-yl)-4H-pyrazino[1,2-a]pyrimidin-4-one], the melting point is > 240 °C (dec.). The EC (1.5-fold increase) in data set [1] is less than 0.1 µM. In data set [2], the “EC1.5x for Smn protein expression” value is recorded as “**** (an EC1.5x≤0.3 μM is indicated by four stars (****))” and the “maximum fold (Fold) increase” value was “***** (a fold increase >1.65 is indicated by five stars (*****))”.
Taken in the same sequence, the figures for `CCc1nc(C)cn2cc(-c3cc(=O)n4cc(N5C[C@@H](C)N[C@@H](C)C5)ccc4n3)cc12` [Compound 748, 7-[(3R,5S)-3,5-dimethylpiperazin-1-yl]-2-(1-ethyl-3-methylpyrrolo[1,2-a]pyrazin-7-yl)-4H-pyrido[1,2-a]pyrimidin-4-one] were 238 to 241 °C, less than 0.1 µM, “**** (an EC1.5x≤0.3 μM is indicated by four stars (****))” and “***** (a fold increase >1.65 is indicated by five stars (*****))”.
`COc1ccc(-c2cc(=O)n3cc(N4CCN(C)CC4)ccc3n2)cc1OC` [Compound 13, 2-(3,4-dimethoxyphenyl)-7-(4-methylpiperazin-1-yl)-4H-pyrido[1,2-a]pyrimidin-4-one]: the melting point lay within 183 to 185 °C. Besides, the EC (1.5-fold increase) in data set [1] is 1 to 3 µM. Besides, the “maximum fold (Fold) increase” value in data set [2] was “** (a fold increase between >1.2 and ≤1.35 is indicated by two stars (**))”.
`O=c1cc(-c2ccc([N+](=O)[O-])cc2)nc2ccc(N3CCNCC3)cn12` [Compound 47, 2-(4-nitrophenyl)-7-(piperazin-1-yl)-4H-pyrido[1,2-a]pyrimidin-4-one] came in with a melting point of 237 to 242 °C. Also, the EC (1.5-fold increase) in data set [1] fell in the range of 1 to 3 µM. In addition, in data set [2], the “maximum fold (Fold) increase” value was “*** (a fold increase between >1.35 and ≤1.5 is indicated by three stars (***))”.
Molecule `COc1ccc(-c2cnc3cc(N4CCNCC4)ccn3c2=O)cc1OC` [Cpd 52, 3-(3,4-dimethoxyphenyl)-8-(piperazin-1-yl)-4H-pyrido[1,2-a]pyrimidin-4-one] registered a melting point of 175 to 179 °C. For the same molecule, in data set [1], the EC (1.5-fold increase) is 3 to 30 µM. Also, the “maximum fold (Fold) increase” value in data set [2] is listed as “* (A maximum fold increase of ≤1.2 is indicated by one star (*))”.
In the case of `Cc1nc2ccc(-c3cc(=O)n4cc(N5CCC(N)C5)ccc4n3)cc2s1` (centres unmarked) [Compound 382, 7-(3-aminopyrrolidin-1-yl)-2-(2-methyl-1,3-benzothiazol-6-yl)-4H-pyrido[1,2-a]pyrimidin-4-one], the melting point was 196 to 200 °C. Moreover, the EC (1.5-fold increase) in data set [1] is less than 0.1 µM. Further, in data set [2], the “EC1.5x for Smn protein expression” value is “*** (an EC1.5× between >0.3 μM and ≤1 μM is indicated by three stars (***))”; the “maximum fold (Fold) increase” value was “**** (a fold increase between >1.5 and ≤1.65 is indicated by four stars (****))”.
For `COCCN1CCN(c2ccc3nc(-c4cc(Cl)c5nc(C)cn5c4)cc(=O)n3c2)C[C@@H]1C` [Compound 533, 2-(8-chloro-2-methylimidazo[1,2-a]pyridin-6-yl)-7-[(3S)-4-(2-methoxyethyl)-3-methylpiperazin-1-yl]-4H-pyrido[1,2-a]pyrimidin-4-one], the melting point was in the range of 179 to 183 °C. Further, in data set [1], the EC (1.5-fold increase) was less than 0.1 µM. Moreover, in data set [2], the “EC1.5x for Smn protein expression” value was “*** (an EC1.5× between >0.3 μM and ≤1 μM is indicated by three stars (***))”; the “maximum fold (Fold) increase” value is “***** (a fold increase >1.65 is indicated by five stars (*****))”.
`Cc1cn2nc(-c3cc(=O)n4cc(N5CC(CN(C)C)C5)ccc4n3)cc2c(C)n1` [Compound 780, 7-{3-[(dimethylamino)methyl]azetidin-1-yl}-2-(4,6-dimethylpyrazolo[1,5-a]pyrazin-2-yl)-4H-pyrido[1,2-a]pyrimidin-4-one] registered a melting point of 228 to 230 °C. Further, the EC (1.5-fold increase) in data set [1] is less than 0.1 µM. For the same molecule, in data set [2], the “EC1.5x for Smn protein expression” value is listed as “**** (an EC1.5x≤0.3 μM is indicated by four stars (****))” and the “maximum fold (Fold) increase” value is reported as “***** (a fold increase >1.65 is indicated by five stars (*****))”.
The like results for `Cn1cc2cc(-c3cc(=O)n4cc(C5CCNCC5)ncc4n3)ccc2n1` [Compound 566, 2-(2-methyl-2H-indazol-5-yl)-7-(piperidin-4-yl)-4H-pyrazino[1,2-a]pyrimidin-4-one] were, in that order, 235 to 237 °C, less than 0.1 µM, “**** (an EC1.5x≤0.3 μM is indicated by four stars (****))” and “***** (a fold increase >1.65 is indicated by five stars (*****))”.
The like results for `CCc1nc(C)cn2nc(-c3cc(=O)n4cc(N5CCN(CC)CC5)ccc4n3)cc12` [Compound 548, 2-(4-ethyl-6-methylpyrazolo[1,5-a]pyrazin-2-yl)-7-(4-ethylpiperazin-1-yl)-4H-pyrido[1,2-a]pyrimidin-4-one] were, in that order, 250 to 252 °C, less than 0.1 µM, “**** (an EC1.5x≤0.3 μM is indicated by four stars (****))” and “***** (a fold increase >1.65 is indicated by five stars (*****))”.
With `Cc1cn2cc(-c3cc(=O)n4cc(N5C[C@@H](C)N[C@@H](C)C5)ccc4n3)cc(Cl)c2n1` [Compound 288, 2-(8-chloro-2-methylimidazo[1,2-a]pyridin-6-yl)-7-[(3R,5S)-3,5-dimethylpiperazin-1-yl]-4H-pyrido[1,2-a]pyrimidin-4-one], the melting point lay within 289 to 295 °C. Further, in data set [1], the EC (1.5-fold increase) was less than 0.1 µM. In data set [2], the “EC1.5x for Smn protein expression” value is given as “**** (an EC1.5x≤0.3 μM is indicated by four stars (****))” and the “maximum fold (Fold) increase” value is listed as “***** (a fold increase >1.65 is indicated by five stars (*****))”.
`C[C@@H]1CN(c2cc(F)c3nc(-c4ccc(N(C)C)cc4)cc(=O)n3c2)CCN1` [Compound 50, 2-[4-(dimethylamino)phenyl]-9-fluoro-7-[(3R)-3-methylpiperazin-1-yl]-4H-pyrido[1,2-a]pyrimidin-4-one] yielded a melting point of 205 to 207 °C. For the same molecule, the EC (1.5-fold increase) in data set [1] lay within 3 to 30 µM. The “maximum fold (Fold) increase” value in data set [2] is “** (a fold increase between >1.2 and ≤1.35 is indicated by two stars (**))”.
`COc1ccc(-c2cc(=O)n3nc(C4=CCNCC4)ccc3n2)cc1OC` [Cpd 398, 2-(3,4-dimethoxyphenyl)-7-(1,2,3,6-tetrahydropyridin-4-yl)-4H-pyrimido[1,2-b]pyridazin-4-one] yielded a melting point of 195 to 200 °C. Besides, the EC (1.5-fold increase) in data set [1] lay in the range of 0.3 to 1 µM. Moreover, in data set [2], the “EC1.5x for Smn protein expression” value was “** (an EC1.5× between >1 μM and ≤3 μM is indicated by two stars (**))”; the “maximum fold (Fold) increase” value is recorded as “***** (a fold increase >1.65 is indicated by five stars (*****))”.
With `Cc1cn2nc(-c3cc(=O)n4cc(N5CCN(CCO)[C@H](C)C5)ccc4n3)cc2c(C)n1` [Compound 532, 2-(4,6-dimethylpyrazolo[1,5-a]pyrazin-2-yl)-7-[(3R)-4-(2-hydroxyethyl)-3-methylpiperazin-1-yl]-4H-pyrido[1,2-a]pyrimidin-4-one], the melting point is 238 to 240 °C. In data set [1], the EC (1.5-fold increase) was less than 0.1 µM. In addition, in data set [2], the “EC1.5x for Smn protein expression” value is “**** (an EC1.5x≤0.3 μM is indicated by four stars (****))” and the “maximum fold (Fold) increase” value is listed as “***** (a fold increase >1.65 is indicated by five stars (*****))”.
Molecule `Cc1cn2nc(-c3cc(=O)n4cc(N5CCN(C6CC6)CC5)ccc4n3)cc2c(C)n1` [Compound 341, 7-(4-cyclopropylpiperazin-1-yl)-2-(4,6-dimethylpyrazolo[1,5-a]pyrazin-2-yl)-4H-pyrido[1,2-a]pyrimidin-4-one] gave a melting point of 189 to 192 °C. For the same molecule, the EC (1.5-fold increase) in data set [1] is 0.3 to 1 µM. For the same molecule, in data set [2], the “EC1.5x for Smn protein expression” value was “*** (an EC1.5× between >0.3 μM and ≤1 μM is indicated by three stars (***))”; the “maximum fold (Fold) increase” value is reported as “***** (a fold increase >1.65 is indicated by five stars (*****))”.

(Values after patent US11753407B2, “Compounds for treating spinal muscular atrophy” (PTC Therapeutics, Inc., priority 2012, dated 2023).)
